The values below come from patent US9532988B2, “Pharmaceutical composition comprising a TRPA1 antagonist and an analgesic agent” (GLENMARK PHARMACEUTICALS S.A., priority 2013, dated 2017).

In assay [1] the test system is Monosodium Iodo Acetate (MIA)-osteoarthritis induced weight bearing deficit in male SD rats. Description: MIA-osteoarthritis induced weight bearing deficit (incapacitance meter). The assay is classed as in vivo, rat (Sprague-Dawley). The settings on record: naproxen 10 mg/kg p.o. alone; 0.5-4 h post-dose; Example 3, Table 5, FIG. 5. The protocol:
After recording basal weight borne by both hind limbs (naïve) using the incapacitance meter (IITC Inc), rats were briefly anaesthetized with 2% isoflurane and O2 mixture and given intraarticular (i.a.) injection of MIA (5 mg per rat in […]) through the intrapatellar ligament of the left knee (Combe et al., 2004). MIA was dissolved in 0.9% sterile saline and administered using a 26½ gauge needle. Contralateral knees were injected intra-articularly with 50 μl of 0.9% sterile saline. Weight bearing deficit in ipsilateral paw was assessed 20 h post MIA injection by measuring weight borne by both hind limbs.
On the day of the experiment (20 h after MIA injection), rats were evaluated for pre-dose weight bearing deficit to assess the effect of MIA. After regrouping the rats after randomization, the pre- & post-dose weight bearing deficit, was assessed for both hind limbs. Rats were orally dosed with vehicle, naproxen, compound I potassium salt and combination (Naproxen+Compound I—simultaneously). The effect of compound I, naproxen and their combination, in MIA-osteoarthritis induced weight bearing deficit in male SD rats, was evaluated using Incapacitance meter (IITC Inc.) fitted with a perspex chamber designed so that each hind paw rat rests on separate transducer pads to record animal's weight on each paw. […] The % reversal of weight bearing deficit was calculated as per standard procedure. […]

Assay [2] has as its system MIA-osteoarthritis induced mechanical punctate allodynia in male SD rats. Description: MIA-induced mechanical punctate allodynia (dynamic von Frey). The format is in vivo, rat (Sprague-Dawley). Particulars: 0.5-4 h post-dose, Example 19, Table 22, FIG. 25. As for the experimental part:
MIA was dissolved in 0.9% sterile saline and administered using a 26½ gauge needle. Contralateral knees were injected intra-articularly with 50 μl of 0.9% sterile saline. On the day of the experiment (20 h after MIA injection), rats were evaluated for pre-dose mechanical punctate allodynia to assess the effect of MIA. After regrouping the rats after randomization, the pre- & post-dose mechanical allodynia was assessed for both hind paws. […] The % reversal of punctate allodynia was calculated as per standard procedure. Animals were weighed and grouped as described in Table 22.

The subject of assay [3] is Freund's Complete Adjuvant (FCA)-induced inflammatory mechanical hyperalgesia in male SD rats. Description: FCA-induced inflammatory mechanical hyperalgesia (Randall-Sellitto paw pressure).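 Note: left hind paw withdrawal threshold (g) to rising pressure on an analgesymeter, FCA injected intraplantar 24 h earlier, thresholds taken before and 0.5, 1, 2 and 4 h after oral dosing.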
Protocol: Materials: FCA containing 1 mg/ml of heat killed and dried Mycobacterium tuberculosis (H37RA strain) emulsified in mineral oil and mannide mono-oleate; Male SD rats weighing 170-220 g; Paw Pressure Analgesymeter (37215, Ugo Basile, Comerio, Italy); Compound I potassium; and Diclofenac sodium
Naïve withdrawal thresholds of the left hind paw to an increasing pressure (g) stimulus were measured in rats using the analgesymeter. FCA was injected (30 μl) into the plantar region of left paw of rats to induce the inflammatory hyperalgesia. Mechanical hyperalgesia (24 h after FCA injection) was assessed by measuring hind paw withdrawal thresholds.
The post-dose paw withdrawal thresholds were measured at 0.5, 1, 2 & 4 h after oral administration. The percentage (%) reversal of mechanical hyperalgesia was calculated as per standard procedure.
Naïve withdrawal thresholds of the left hind paw to an increasing pressure (g) stimulus were measured in rats using the analgesymeter. Freund's Complete Adjuvant (FCA) was injected (30 μl) into the plantar region of left paw of rats to induce the inflammatory hyperalgesia. Mechanical hyperalgesia (24 h after FCA injection) was assessed both pre- & post-dosing of drugs by measuring hind paw withdrawal thresholds. […] The post-dose paw withdrawal thresholds were measured at 0.5, 1, 2 & 4 h after oral administration. The % reversal of mechanical hyperalgesia was calculated.
Naïve withdrawal thresholds of the left hind paw to an increasing pressure (g) stimulus were measured in rats using the analgesymeter.
For assay [4], the system named is FCA-induced thermal hyperalgesia in male SD rats. Description: FCA-induced thermal hyperalgesia (Hargreaves apparatus). The assay is classed as in vivo, rat (Sprague-Dawley). Particulars: Compound III 0.039 mg/kg p.o. alone; 0.5-4 h post-dose; Example 16, Table 19, FIG. 22. As for the experimental part: The % reversal of mechanical/thermal hyperalgesia was calculated.

The subject of assay [5] is Streptozotocin (STZ)-induced diabetic peripheral neuropathic hyperalgesia in male SD rats. Description: Streptozotocin-induced diabetic peripheral neuropathic hyperalgesia. The format is in vivo, rat (Sprague-Dawley). The settings on record: Compound III 0.04 mg/kg p.o. alone; 0.5-4 h post-dose; Example 18, Table 21, FIG. 24. The protocol: Streptozotocin (STZ)-induced neuropathic hyperalgesia in rats is a model to screen potential therapeutics for diabetic painful neuropathy in human patients. Streptozotocin was dissolved in freshly prepared cold citrate buffer (0.1 M, pH—4.4). Diabetes was induced in overnight fasted male SD rats (weighing 250-300 g) by a single intraperitoneal injection of Streptozotocin (Sigma, 55 mg/kg, i.p). […] On the day of the experiment (13th day after STZ injection) rats were assessed for mechanical hyperalgesia using Randall-Sellito paw pressure analgesymeter. Animals were weighed and grouped as described in Table 9.
Rats were orally dosed with vehicle, duloxetine hydrochloride, Compound I potassium salt and combination (Duloxetine+Compound I).
Streptozotocin (STZ)-induced neuropathic hyperalgesia in rats is a model to screen potential therapeutics for diabetic painful neuropathy in human patients. Streptozotocin was dissolved in freshly prepared cold citrate buffer (0.1 M, pH —4.4). Diabetes was induced in overnight fasted male Sprague Dawley rats by a single intraperitoneal injection of Streptozotocin (Sigma, 55 mg/kg, i.p). […] On the day of the experiment (13th day after STZ injection) rats were assessed for mechanical hyperalgesia using Randall-Sellito paw pressure analgesymeter.
Rats were orally dosed with vehicle, different doses of duloxetine hydrochloride, Compound II disodium salt and combinations (duloxetine+Compound II—simultaneously). The post-dose paw withdrawal thresholds were measured at 1, 2 & 4 h after oral administration. […] Animals were weighed and grouped as described in Table 16.
Rats were orally dosed with vehicle, different doses of duloxetine hydrochloride, Compound III disodium salt and combinations (duloxetine+Compound III—simultaneously). […] Animals were weighed and grouped as described in Table 21.

For the compound `COc1ccc2cc([C@H](C)C(=O)O)ccc2c1` [naproxen], the “maximal % reversal of weight bearing deficit” value in assay [1] turned out to be 39%. Moreover, the “maximal % reversal of mechanical punctate allodynia” value in assay [2] (naproxen 3 mg/kg p.o. alone) came to 18%. Also, the “maximal % reversal of hyperalgesia” value in assay [3] (naproxen 3 mg/kg p.o. alone, Example 2, Table 3, FIG. 3) is listed as 23%; in assay [3] (naproxen 3 mg/kg p.o. alone, Example 10, Table 13, FIG. 14), 18%; in assay [3] (naproxen 5 mg/kg p.o. alone, Example 2, Table 4, FIG. 4), 32%. Besides, in assay [3] (naproxen 3 mg/kg p.o. alone, Example 17, Table 20, FIG. 23), the “maximal % reversal of mechanical hyperalgesia” value is given as 17%.
In the case of `Cn1c(=O)c2c(CC(=O)N=c3scc(-c4ccc(C(F)(F)F)c(F)c4F)n3COP(=O)(O)O)nsc2n(C)c1=O` [Compound III, [4-[2,3-difluoro-4-(trifluoromethyl)phenyl]-2-{[(5,7-dimethyl-4,6-dioxo-4,5,6,7-tetrahydro[1,2]thiazolo[5,4-d]pyrimidin-3-yl)acetyl]imino}-1,3-thiazol-3(2H)-yl]methyl dihydrogen phosphate], the “maximal % reversal of thermal hyperalgesia” value in assay [4] amounted to 22%. Moreover, the “maximal % reversal of hyperalgesia” value in assay [5] came to 19%. Besides, the “maximal % reversal of mechanical punctate allodynia” value in assay [2] (Compound III 0.132 mg/kg p.o. alone) was 19%. Besides, the “maximal % reversal of mechanical hyperalgesia” value is recorded as 17% in assay [3] (Compound III 0.039 mg/kg p.o. alone, Example 16, Table 19, FIG. 21) and 17% in assay [3] (Compound III 0.039 mg/kg p.o. alone, Example 17, Table 20, FIG. 23).
